Laboratory results reported in publication PMC12751025, “α‑Aminoboronic Acid Moieties in Boro Dipeptides Modulate Proteasome Subunit Selectivity and Provide Access to Compounds with Potent Anticancer and Anti-Inflammatory Activity” (Journal of Medicinal Chemistry, 2025).

How the values were obtained:
[1] = target: T1, β2c subunit of human cCP (Homo sapiens, UniProt P49720+Q99436); experiment: IC50 determination with fluorogenic substrate Ac-RLR-AMC (PA28β added); type: biochemical; settings: own assay
T1 construct: purchased Boston Biochem, Inc
Experimental: Stock solutions of the compounds were prepared in DMSO. To the 35 μL of solution of the compound in the buffer, 35 μL of 0.4 nM human iCP (South Bay Bio, San Jose, CA, USA) or human cCP (Boston Biochem, Inc., Cambridge, MA, USA) was added. For assays evaluating the activity of β2c and β2i, the buffer was modified by adding the proteasomal activator PA28β (Boston Biochem, Inc., Cambridge, MA, USA) at a final concentration of 6 nM. […] The substrates used were acetyl-Nle-Pro-Nle-Asp-7-amino-4-methylcoumarin (Ac-nLPnLD-AMC, Bachem, Bubendorf, Switzerland) for β1c, acetyl-Pro-Ala-Leu-7-amino-4-methylcoumarin (Ac-PAL-AMC, Boston Biochem, Inc., Cambridge, MA, USA) for β1i, acetyl-Arg-Leu-Arg-7-amino-4-methylcoumarin (Ac-RLR-AMC, Bachem, Bubendorf, Switzerland) for β2c and β2i, acetyl-Trp-Leu-Ala-7-amino-4-methylcoumarin (Ac-WLA-AMC, Bachem, Bubendorf, Switzerland) for β5c, and acetyl-Ala-Asn-Trp-7-amino-4-methylcoumarin (Ac-ANW-AMC, Bachem, Bubendorf, Switzerland) for β5i. Progress of the reaction was measured using a BioTek Synergy HT microplate reader, monitoring fluorescence at 460 nm (excitation at 360 nm) for 60 min at 37 °C. The initial linear ranges were used to calculate the reaction velocity and determine the residual activity.
(§1) The final assay mixtures contained 0.4 nM human iCP or cCP in assay buffer (50 mM Tris-HCl, 0.5 mM EDTA, pH 7.4, addition of PA28β for β2c and β2i subunits). […] After incubation at 37 °C for 30 min, the reaction was initiated by the addition of the substrate Ac-nLPnLD-AMC for β1c, Ac-PAL-AMC for β1i, Ac-RLR-AMC for β2c and β2i, Ac-WLA-AMC for β5c, and Ac-ANW-AMC for β5i. Fluorescence was monitored at 460 nm (excitation at 360 nm) for 60 min at 37 °C. The reaction progress was recorded and the initial linear phases were used to determine the velocity. The IC50 values were calculated using GraphPad Prism software (GraphPad Software, San Diego, CA, USA), and the results represent the mean values of at least three independent determinations.

[2] = target: T2, β1c subunit of human cCP (Homo sapiens, UniProt P28072+Q99436); experiment: IC50 determination with subunit-specific fluorogenic substrate Ac-nLPnLD-AMC; type: biochemical; settings: own assay
T2 construct: purchased Boston Biochem, Inc
Experimental: (§2) The measurements of the residual activity of control compounds were carried out at final compound concentrations of 1 μM in the assay buffer (50 mM Tris-HCl, 0.5 mM ethylenediaminetetraacetic acid (EDTA), pH 7.4). Stock solutions of the compounds were prepared in DMSO. To the 35 μL of solution of the compound in the buffer, 35 μL of 0.4 nM human iCP (South Bay Bio, San Jose, CA, USA) or human cCP (Boston Biochem, Inc., Cambridge, MA, USA) was added. For assays evaluating the activity of β2c and β2i, the buffer was modified by adding the proteasomal activator PA28β (Boston Biochem, Inc., Cambridge, MA, USA) at a final concentration of 6 nM. […] The substrates used were acetyl-Nle-Pro-Nle-Asp-7-amino-4-methylcoumarin (Ac-nLPnLD-AMC, Bachem, Bubendorf, Switzerland) for β1c, acetyl-Pro-Ala-Leu-7-amino-4-methylcoumarin (Ac-PAL-AMC, Boston Biochem, Inc., Cambridge, MA, USA) for β1i, acetyl-Arg-Leu-Arg-7-amino-4-methylcoumarin (Ac-RLR-AMC, Bachem, Bubendorf, Switzerland) for β2c and β2i, acetyl-Trp-Leu-Ala-7-amino-4-methylcoumarin (Ac-WLA-AMC, Bachem, Bubendorf, Switzerland) for β5c, and acetyl-Ala-Asn-Trp-7-amino-4-methylcoumarin (Ac-ANW-AMC, Bachem, Bubendorf, Switzerland) for β5i. Progress of the reaction was measured using a BioTek Synergy HT microplate reader, monitoring fluorescence at 460 nm (excitation at 360 nm) for 60 min at 37 °C. The initial linear ranges were used to calculate the reaction velocity and determine the residual activity.
as §1

[3] = target: β5i subunit of human iCP (Homo sapiens, UniProt P20618+P28062); experiment: IC50 determination with fluorogenic substrate Ac-ANW-AMC; settings: IC50 β5i, own assay
Experimental: as §2, §1

[4] = test system: β1c; settings: in parentheses in Table S2; SI reference list; read-out: IC50 β1c, previously published data; cited from earlier work
[5] = test system: β1i; settings: in parentheses in Table S2; SI reference list; read-out: IC50 β1i, previously published data; cited from earlier work
[6] = target: β2i subunit of human iCP (Homo sapiens, UniProt P40306+P49720); experiment: IC50 determination with fluorogenic substrate Ac-RLR-AMC (PA28β added)
Experimental: as §2, §1

[7] = test system: MM.1S; design: method as in previous findings; settings: reference number not given; ref previous findings; read-out: IC50 for the reduction of MM.1S viability; cited from earlier work
[8] = test system: β5i; settings: in parentheses in Table S2; SI reference list; read-out: IC50 β5i, previously published data; cited from earlier work
[9] = Cytotoxicity MTS assay; type: cell-based; settings: human, MM.1S multiple myeloma cells, 250 nM, 72 h (Figure S3), read-out: viable cells
Experimental: Cytotoxicity was determined using the MTS cell proliferation assay (CellTiter 96 AQueous One Solution Cell Proliferation Assay, Promega, Wisconsin, USA), which measures mitochondrial metabolic activity as a surrogate for cell viability. The assay was performed according to the manufacturer protocol. […] The cells were seeded in 96-well plates (15.000–30.000 cells/well). After 24 h incubation at 5% CO2 and 37 °C, the cells were treated either with DMSO (negative control) or solutions of the tested compounds in DMSO. After 24 or 72 h, MTS reagent was added. Cells were incubated for additional 2 h - 4 h, followed by the measurement of absorbance at 490 nm on the Tecan Spark microplate reader.

[10] = target: T3, β5c subunit of human cCP (Homo sapiens, UniProt P20618+P28074); experiment: IC50 determination with fluorogenic substrate Ac-WLA-AMC; type: biochemical; settings: own assay
T3 construct: purchased Boston Biochem, Inc
Experimental: as §2, §1

[11] = test system: β2c; settings: in parentheses in Table S2; SI reference list; read-out: IC50 β2c, previously published data; cited from earlier work
[12] = target: β1i subunit of human iCP (Homo sapiens, UniProt P28065+P40306); experiment: IC50 determination with subunit-specific fluorogenic substrate Ac-PAL-AMC; settings: IC50 β1i, own assay
Experimental: as §2, §1

[13] = test system: β5c; settings: in parentheses in Table S2; SI reference list; read-out: IC50 β5c, previously published data; cited from earlier work
[14] = test system: β2i; settings: in parentheses in Table S2; SI reference list; read-out: IC50 β2i, previously published data; cited from earlier work

SMILES: O=C(N[C@@H](Cc1coc2ccccc12)B(O)O)[C@@H]1C[C@H]2CC[C@@H]1O2 [M3258]
- IC50 [1]: > 1 µM
- IC50 [2]: > 1 µM
- IC50 [3]: 0.0074 ± 0.001 µM
- IC50 [4]: > 30 µM
- IC50 [5]: > 30 µM
- IC50 [6]: > 1 µM
- IC50 [7]: 0.367 µM
- IC50 [8]: 0.0041 µM
- viability at 72 h, […] [9]: 87%
- IC50 [10]: 1.23 ± 0.09 µM
- IC50 [11]: > 30 µM
- IC50 [12]: > 1 µM
- IC50 [13]: 2.52 µM
- IC50 [14]: > 30 µM
